Data set [1] in a line: Solubility of AZD9291 in simulated gastric fluid, human intestinal fluid and at intestinal pH. The text has this:
(§1) In such cases, where the solubility of a drug varies with pH, and particularly when the solubility is highest at acidic pH, there is a problem that the drug may precipitate from solution as it passes through the gastrointestinal tract. Drugs need to be in solution in order to be absorbed, so such precipitation can lead to variability in the extent and/or rate of absorption of the drug. […] In principle, the dose administered to a patient could be increased to account for potentially poor absorption, but this approach introduces a risk that too much of the drug may enter the patient's system in some cases—which may be a safety risk and/or increase the risk/severity of side-effects. […] Accordingly, there remained a problem to provide an improved way of dosing the Agent to patients that should reduce/avoid the risk of and/or severity of the above-mentioned problems of inter-patient variability of absorption and/or inter-dose variability of absorption.

A short description of the next data set: Permeability. Format: in vitro ADME.
Description: as §1

For data set [2], the system named is advanced EGFRm T790M+ lung adenocarcinoma. The experiment in a line: Phase 1 clinical trial. To be noted: a number of patients; Agent in the form of the mesylate salt. The data set is classed as in vivo, human. An excerpt:
Further details of this ‘blend in capsule’ formulation are described hereinafter as ‘Comparative Example 1’.

Data set [3] relates to EGFRm+ and T790M mutant tumour xenograft and transgenic models. To be noted: doses as low as 5 mg/kg/day; cited from earlier work.
Data set [4] relates to EGFRm+ sensitising and the T790M resistance mutant forms of EGFR. To be noted: cited from earlier work.
Data set [5] deals with EGFRm+ and T790M mutant cell lines. To be noted: in vitro; cited from earlier work.
A further data set relates to wild-type EGFR lines. To be noted: in vitro, compared with mutant cell lines; cited from earlier work.
Data set [6] is described as follows: Stability of solution (precipitation). Format: physicochemical. As to conditions: solution once formed.

Consider `C=CC(=O)Nc1cc(Nc2nccc(-c3cn(C)c4ccccc34)n2)c(OC)cc1N(C)CCN(C)C` [AZD9291, N-(2-{2-dimethylaminoethyl-methylamino}-4-methoxy-5-{[4-(1-methylindol-3-yl)pyrimidin-2-yl]amino}phenyl)prop-2-enamide], for which the pH dependent solubility entry in data set [1] is listed as “significant pH dependent solubility”. In “Permeability”, the permeability result is recorded as “moderate permeability”. In data set [2], the clinical response entry is “partial responses”. For the same compound, the tumor regression result in data set [3] is “profound and sustained tumor regression”. The “inhibition of EGFRm+ sensitising and T790M resistance mutant forms of EGFR” value in data set [4] is given as “potent inhibitor”. In data set [5], the “inhibition of EGFR signaling pathways and cellular growth” value is “potently inhibits”. Besides, in the data set with wild-type EGFR lines, the “activity against wild-type EGFR lines” value is “much less activity”.
On to AZD9291 mesylate, for which the “solubility at intestinal pH compared with AZD9291 in free base form” value in data set [1] (intestinal pH) was “significantly higher”. In addition, the “period over which solution is stable without precipitation” value in data set [6] is reported as “at least 24 hours”.

(Values after patent US10183020B2 (AstraZeneca AB, priority 2014, dated 2019).)
